Tested on: citric acid-induced cough responses
Assay: citric acid-induced cough in conscious guinea-pigs (aerosol pre-treatment)
Assay type: in vivo, guinea-pig
Settings: aerosol 10.0 mg/ml pre-treatment immediately before citric acid (1M) exposure; 15 minute observation period
From the text: The following method is one of the general methods available to determine the antitussive activity of the compounds of the present invention.
Male albino Dunkin-Hartley strain guinea-pigs (weight 300-400 g) can be obtained from various commercial suppliers.
The method is a modification of that described by Adcock J. J., Schneider C. and Smith T. W., “Effects of Morphine and a Novel Opioid Pentapeptide BW443C, on Cough, Nociception and Ventilation in the Unanaesthetized Guinea-pig”, Br. J. Pharmacol., 93, 93-100 (1988). […]
Cylinder air is introduced into the exposure chamber at a flow rate of 1 liter/min, maintained by a needle valve and monitored by a rotameter. […]
Cough responses are induced by exposure to an aerosol of citric acid (1M) for 10 minutes. Animals are continuously monitored by trained observer, and the number of coughs are counted during a 15 minute period from commencement of the citric acid aerosol administration. […]
The three types of response are differentiated primarily by sound and visual observation. […] Each cough is marked on the Grass polygraph paper trace, and from these record numbers, frequency and time of onset of coughs are determined. […]
Quantities of drugs are weighed out and dissolved in a vehicle. […] The sequence of pre-treatment administration is determined according to a 4×4 Latin Square design. […]

## CC(C)[N+](C)(C)CC(O)COc1cccc2ccccc12.[I-] (stereo not shown) [N,N-dimethyl-propranolol iodide, 2-Hydroxy-N-isopropyl-N,N-dimethyl-3-(1-naphthyloxy)propan-1-aminium iodide]
  inhibition of cough responses compared with vehicle (saline) pre-treated guinea pigs: 50-70%
